Where two headings read alike, the source gives them in different places.
Assay: Measurement of pKa value of the dyes (spectrophotometric titration)
Format: physicochemical
Conditions: titration from pH 2 with NaOH, UV-vis inflection point
Method: The pKa values of the dyes can be determined by the following method. The dye is dissolved in a solution of a DMF/water (1/1) volume ratio to a final concentration of 2×10^−5 mol/l. After adjusting the resulting solution to pH 2, using 1.0 mol/l hydrochloric acid, the solution is titrated with aqueous 1.0 mol/l sodium hydroxide solution. Recording the change of the visible ultra-violet absorption spectrum, the inflection point can be determined by regression analysis.

[1] = DMF/water (1/1 v/v) solution, read-out: pKa

| Compound | pKa [1] | pKa (DMF/water (1/1)) |
| --- | --- | --- |
| CC(=O)Nc1cc(/N=N/c2ccc(S(C)(=O)=O)cc2C#N)c2ccccc2c1O [Dye 4] | 7 |  |
| Cc1nsc(/N=N/c2cc(Cl)c(O)cc2Cl)n1 [Dye 30, reference compound] |  | 3.8 |
| CCSc1nnc(/N=N/c2c(C(C)(C)C)nn3nc(C(C)C)[nH]c23)s1 [Dye 35, reference compound] |  | 4.7 |
| NS(=O)(=O)c1ccc2nsc(N=Nc3cc(Cl)c(O)cc3Cl)c2c1 [Dye 13] |  | 4.7 |
| O=C(Nc1cc(/N=N/c2nc(-c3ccccc3)no2)c2ccccc2c1O)c1ccncc1 [Dye 2] |  | 5.5 |
| CCSc1nnc(/N=N/c2c(C(C)(C)C)nn3nc(C)[nH]c23)s1 [Dye 22] |  | 5.5 |
| N#CC(/N=N/c1ccc(S(N)(=O)=O)cc1)C(=O)c1ccccc1 (stereo not drawn) [Dye 23] |  | 5.8 |
| CCSc1nsc(/N=N/c2cc(Cl)c(O)cc2Cl)n1 [Dye 26, reference compound] |  | 3.5 |
| CCc1nn2c(-c3ccc(OC)c(NS(C)(=O)=O)c3)n[nH]c2c1/N=N/c1nc(C(C)C)no1 [Dye 36, reference compound] |  | 5.2 |
| CS(=O)(=O)Nc1cccc2c(O)ccc(N=Nc3nc4ccccc4s3)c12 [Dye 9] |  | 6.1 |
| CCSc1nnc(N=Nc2ccc(O)c3cccc(NS(C)(=O)=O)c23)s1 [Dye 8] |  | 4.4 |
| CS(=O)(=O)Nc1cccc2c(O)ccc(/N=N/c3snc4ccc(S(N)(=O)=O)cc34)c12 [Dye 10] | 5 |  |
| CS(=O)(=O)c1ccc(/N=N/c2ccc(O)c3ccccc23)c(C#N)c1 [Dye 3] |  | 6.5 |
| Cc1nn2nc(C(C)(C)C)c(/N=N/c3cc(Cl)c(S(N)(=O)=O)cc3Cl)c2[nH]1 [Dye 24] |  | 5.9 |
| COCCOc1ccc(N=NC2C(=O)N(c3ccccc3)N=C2C(N)=O)cc1S(N)(=O)=O (stereo not drawn) [Dye 21] |  | 6.4 |

Continued, values first:

| pKa [1] | pKa (DMF/water (1/1)) | Compound |
| --- | --- | --- |
|  | 6.0 | CC(=O)Nc1cc(/N=N/c2nncs2)ccc1O [Dye 1] |
|  | 5.0 | Cc1nsc(/N=N/c2ccc(O)c(Cl)c2)n1 [Dye 31, reference compound] |
|  | 3.0 | CCSc1nsc(/N=N/c2cc(Cl)c(O)c(NC(=O)CC)c2)n1 [Dye 25, reference compound] |
|  | 5.9 | Oc1ccc(/N=N/c2nc3ccccc3s2)cc1Cl [Dye 7] |
|  | 6.1 | CSc1nnc(/N=N/c2ccc(O)c(NC(C)=O)c2)s1 [Dye 5] |
|  | 3.9 | CNS(=O)(=O)c1ccc2nsc(/N=N/c3cc(NC(C)=O)c(O)c(NC(C)=O)c3)c2c1 [Dye 39, reference compound] |
| 3 |  | CC(=O)Nc1cc(/N=N/c2snc3ccc(S(N)(=O)=O)cc23)c(Cl)c(Cl)c1O [Dye 27, reference compound] |
| 4.8 |  | CCC(=O)Nc1cc(/N=N/c2nccs2)cc(Cl)c1O [Dye 28, reference compound] |
|  | 3.3 | CCC(=O)Nc1cc(/N=N/c2nc(C)ns2)cc(Cl)c1O [Dye 29, reference compound] |
|  | 4.0 | CCC(=O)Nc1cc(N=Nc2snc3ccc(S(N)(=O)=O)cc23)cc(Cl)c1O [Dye 12] |
|  | 5.2 | CC(=O)Nc1cc(N=Nc2nc(C)ns2)ccc1O [Dye 32, reference compound] |
|  | 6.2 | CC(=O)Nc1cc(/N=N/c2nc3ccccc3s2)ccc1O [Dye 6] |

Source: patent US7198651B2, “Method of effecting a reversible color change of dyed hair” (Kao Corporation, priority 2003, dated 2007)
